In US20240228482A1, “COMPOUNDS, COMPOSITIONS AND METHODS OF TREATING CANCER” (HOTSPOT THERAPEUTICS, INC., priority 2021, published 2024):

Target: T1, CBL-B (Homo sapiens, UniProt Q13191)
T1 construct: GST
Experiment: CBL-B TR-FRET IC50 screening (E1/E2 ubiquitination, Biotin-Ubiquitin, Anti GST-Tb donor / Streptavidin-d2 acceptor)
Format: biochemical
Conditions: CBL-B 10 nM final; 11-point titration from 100 uM; binned A-F; read-out: CBL-B TR-FRET activity IC50

T1 sequence (Q13191 whole entry): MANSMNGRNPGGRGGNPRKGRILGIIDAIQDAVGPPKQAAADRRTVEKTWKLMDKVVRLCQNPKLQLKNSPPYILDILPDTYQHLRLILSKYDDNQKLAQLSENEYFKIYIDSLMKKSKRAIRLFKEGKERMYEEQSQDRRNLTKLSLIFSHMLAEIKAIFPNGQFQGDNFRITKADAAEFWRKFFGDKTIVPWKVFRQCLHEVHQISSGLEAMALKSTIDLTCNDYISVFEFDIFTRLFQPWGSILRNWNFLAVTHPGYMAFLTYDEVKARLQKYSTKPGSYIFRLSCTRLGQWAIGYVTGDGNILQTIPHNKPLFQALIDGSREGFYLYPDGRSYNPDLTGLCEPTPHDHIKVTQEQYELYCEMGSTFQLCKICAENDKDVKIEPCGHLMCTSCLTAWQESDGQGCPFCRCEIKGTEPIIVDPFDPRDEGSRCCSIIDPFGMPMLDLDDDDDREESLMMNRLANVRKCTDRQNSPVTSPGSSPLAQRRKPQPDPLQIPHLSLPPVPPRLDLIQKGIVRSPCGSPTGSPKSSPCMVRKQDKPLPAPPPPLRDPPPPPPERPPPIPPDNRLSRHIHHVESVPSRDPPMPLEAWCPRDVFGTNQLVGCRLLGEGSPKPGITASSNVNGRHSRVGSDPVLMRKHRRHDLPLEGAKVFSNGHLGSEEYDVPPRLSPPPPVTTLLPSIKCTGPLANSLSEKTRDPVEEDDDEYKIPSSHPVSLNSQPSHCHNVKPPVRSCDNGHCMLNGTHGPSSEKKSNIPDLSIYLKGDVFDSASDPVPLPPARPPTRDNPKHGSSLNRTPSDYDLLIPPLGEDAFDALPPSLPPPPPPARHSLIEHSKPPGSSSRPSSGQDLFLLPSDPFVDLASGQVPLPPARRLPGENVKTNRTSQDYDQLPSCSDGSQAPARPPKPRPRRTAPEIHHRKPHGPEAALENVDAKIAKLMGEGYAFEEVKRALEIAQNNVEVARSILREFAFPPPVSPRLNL

In the case of `Cn1cnnc1CC1(n2cc(-n3cc4c(C(F)(F)F)cccn4c3=O)cn2)COC1` [Compound 146], the IC50 is reported as > 10000 nM.
`O=c1n(-c2cccc(C3(Cc4nnco4)COC3)c2)cc2c(C(F)(F)F)cccn12` [Compound 147] was tested, and the IC50 was > 10000 nM.
With `Cn1cnnc1CC(c1ccccc1)c1cccc(-n2cc3c(C(F)(F)F)cccn3c2=O)c1` (stereo not drawn) [Compound 148] the IC50 was > 10000 nM.
With `Cn1cnnc1CSc1cccc(-n2cc3c(C(F)(F)F)cccn3c2=O)c1` [Compound 149] the IC50 was > 10000 nM.
`Cn1cnnc1CC1(c2cccc(-n3cc4c(C(F)(F)F)cc(CN5CCOC(C)(C)C5)cn4c3=O)c2)COC1` [Compound 153] was tested, and the IC50 was < 100 nM.
`C[C@H]1CCCN(Cc2cc(C(F)(F)F)c3cn(-c4cccc(N(C)Cc5nncn5C)c4)c(=O)n3c2)C1` [Compound 155] showed an IC50 of 3000 to 10000 nM.
Molecule `Cn1cnnc1[C@H](c1cccc(-n2cc3c(C(F)(F)F)cc(CN4CC[C@H](F)C4)cn3c2=O)c1)C1CCC1` [Compound 158] has an IC50 of 3000 to 10000 nM.
In the case of `Cn1cnnc1[C@H](c1cccc(-n2cc3c(C(F)(F)F)cc(CN4CCC(C)(F)CC4)cn3c2=O)c1)C1CCC1` [Compound 160], the IC50 is reported as 1000 to 3000 nM.
`Cn1cnnc1CC1(c2cccc(-n3cc4c(C(F)(F)F)cc(CN5CCCC[C@H](O)C5)cn4c3=O)c2)COC1` [Compound 166] was tested, and the IC50 was < 100 nM.
For `Cn1cnnc1CC1(c2cccc(-n3cc4c(C(F)(F)F)cc(CN5CCCC[C@@H](O)C5)cn4c3=O)c2)COC1` [Compound 167], the IC50 was < 100 nM.
`Cc1conc1CC1(c2cccc(-n3cc4c(C(F)(F)F)cc(Br)cn4c3=O)c2)COC1` [Compound 168] gave an IC50 of 100 to 300 nM.
For `CNS(=O)(=O)c1cc(C(F)(F)F)c2cn(-c3cccc(C4(Cc5nncn5C)COC4)c3)c(=O)n2c1` [Compound 175], the IC50 was 1000 to 3000 nM.
`Cn1cnnc1CC1(c2cccc(-n3cc4c(C(F)(F)F)cc(C5CCN(CC(F)(F)F)CC5)cn4c3=O)c2)COC1` [Compound 178] gave an IC50 of 301 to 1000 nM.
For `Cn1cnnc1CC1(c2cccc(-n3cc4c(C(F)(F)F)cc(C5(O)CCNCC5)cn4c3=O)c2)COC1` [Compound 179], the IC50 was 100 to 300 nM.
In the case of `Cn1cnnc1CC1(c2cc(Br)cc(-n3cc4c(C(F)(F)F)cccn4c3=O)c2)COC1` [Compound 180], the IC50 is reported as 3000 to 10000 nM.
With `Cn1cnnc1COc1cccc(-n2cc3c(C(F)(F)F)cc(Br)cn3c2=O)c1` [Compound 181] the IC50 was > 10000 nM.
For `CN1CCC(O)(c2cc(C(F)(F)F)c3cn(-c4cccc(C5(Cc6nncn6C)COC5)c4)c(=O)n3c2)CC1` [Compound 182], the IC50 was 301 to 1000 nM.
`C[C@H]1CCCN(Cc2cc(C(F)(F)F)c3cn(-c4cc(C#N)cc(C5(Cc6nncn6C)COC5)c4)c(=O)n3c2)C1` [Compound 183] was tested, and the IC50 was < 100 nM.
In the case of `CC1CC(c2cccc(-n3cc4c(C(F)(F)F)cc(C#N)cn4c3=O)c2)(c2nncn2C)C1` (stereo not drawn) [Compound 184], the IC50 is reported as < 100 nM.
Molecule `Cc1conc1CC1(c2cccc(-n3cc4c(C(F)(F)F)cc(CN5CCC[C@H](C)C5)cn4c3=O)c2)COC1` [Compound 185] has an IC50 of 100 to 300 nM.
For `CN1CC(Cc2nncn2C)(c2cccc(-n3cc4c(C(F)(F)F)cccn4c3=O)c2)C1` [Compound 188], the IC50 was > 10000 nM.
Work on `Cc1cn(C)nc1CC1(c2cccc(-n3cc4c(C(F)(F)F)cc(CN5CCC[C@H](C)C5)cn4c3=O)c2)COC1` [Compound 197] yielded an IC50 of 3000 to 10000 nM.
With `[2H]C([2H])([2H])n1cnnc1CC1(c2cccc(-n3cc4c(C(F)(F)F)cc(CN5CCC[C@H](C)C5)cn4c3=O)c2)COC1` [Compound 198] the IC50 was < 100 nM.
In the case of `[2H]C([2H])([2H])n1cnnc1CC1(c2cccc(-n3cc4c(C(F)(F)F)cc(CN5CCO[C@H](C)C5)cn4c3=O)c2)COC1` [Compound 199], the IC50 is reported as < 100 nM.
In the case of `C[C@H]1CCCN(Cc2cc(C(F)(F)F)c3cn(-c4cccc(OCc5nncn5C)c4)c(=O)n3c2)C1` [Compound 200], the IC50 is reported as > 10000 nM.
For `C[C@@H]1CN(Cc2cc(C(F)(F)F)c3cn(-c4cccc(C5(Cc6nncn6C)COC5)c4)c(=O)n3c2)C[C@@H](C)O1` [Compound 201], the IC50 was < 100 nM.
For `Cn1cnnc1CC1(c2cccc(-n3cc4c(C(F)(F)F)cc(CN5CCCC(O)C5)cn4c3=O)c2)COC1` (stereo not drawn) [Compound 206], the IC50 was 301 to 1000 nM.
For `Cc1c[nH]nc1CC1(c2cccc(-n3cc4c(C(F)(F)F)cc(CN5CCC[C@H](C)C5)cn4c3=O)c2)COC1` [Compound 207], the IC50 was < 100 nM.
For `CC(=O)N(c1cccc(-n2cc3c(C(F)(F)F)cccn3c2=O)c1)c1nncn1C` [Compound 208], the IC50 was > 10000 nM.
For `[2H]c1nnc(CC2(c3cccc(-n4cc5c(C(F)(F)F)cc(CN6CCC[C@H](C)C6)cn5c4=O)c3)COC2)n1C` [Compound 209], the IC50 was < 100 nM.
`O=c1n(-c2cccc(C3(Cc4nnc5n4CCC5)COC3)c2)cc2c(C(F)(F)F)cccn12` [Compound 210] was tested, and the IC50 was > 10000 nM.
Work on `Cn1cnnc1N(c1cccc(-n2cc3c(C(F)(F)F)cccn3c2=O)c1)C1COC1` [Compound 211] yielded an IC50 of 1000 to 3000 nM.
Molecule `Cn1cnnc1[C@]1(c2cccc(-n3cc4c(C(F)(F)F)cc(C#N)cn4c3=O)c2)C[C@H](C)C1` [Compound 212] has an IC50 of 100 to 300 nM.
With `Cn1cnnc1[C@]1(c2cccc(-n3cc4c(C(F)(F)F)cc(CN5CC[C@H](F)C5)cn4c3=O)c2)C[C@@H](C)C1` [Compound 216] the IC50 was < 100 nM.
`Cc1c[nH]nc1[C@@H](c1cccc(-n2cc3c(C(F)(F)F)cc(CN4CCC[C@H](C)C4)cn3c2=O)c1)C1CCC1` [Compound 219] was tested, and the IC50 was < 100 nM.
`Cc1c[nH]nc1[C@H](c1cccc(-n2cc3c(C(F)(F)F)cc(CN4CCO[C@H](C)C4)cn3c2=O)c1)C1CCC1` [Compound 220] showed an IC50 of 3000 to 10000 nM.
`Cc1c[nH]nc1[C@@H](c1cccc(-n2cc3c(C(F)(F)F)cc(CN4CCO[C@H](C)C4)cn3c2=O)c1)C1CCC1` [Compound 221] gave an IC50 of 100 to 300 nM.
For `COC1CCN(Cc2cc(C(F)(F)F)c3cn(-c4cccc([C@H](c5nncn5C)C5CCC5)c4)c(=O)n3c2)CC1` [Compound 225], the IC50 was < 100 nM.
`Cn1cnnc1[C@]1(c2cccc(-n3cc4c(C(F)(F)F)cc(CN5CC6(CC6)C5)cn4c3=O)c2)C[C@@H](C)C1` [Compound 228] was tested, and the IC50 was < 100 nM.
In the case of `Cn1cnnc1[C@]1(c2cccc(-n3cc4c(C(F)(F)F)cc(CN5CCC(F)CC5)cn4c3=O)c2)C[C@@H](C)C1` [Compound 229], the IC50 is reported as < 100 nM.
In the case of `Cn1cnnc1C1(c2cccc(-n3cc4c(C(F)(F)F)cc(Br)cn4c3=O)c2)COC1` [Compound 230], the IC50 is reported as > 10000 nM.
`Cc1cc(-n2cc3c(C(F)(F)F)cc(Br)cn3c2=O)cc(C2(Cc3nncn3C)COC2)c1` [Compound 238] was tested, and the IC50 was 1000 to 3000 nM.
With `Cc1cc(-n2cc3c(C(F)(F)F)cc(CN4CCC[C@H](C)C4)cn3c2=O)cc(C2(Cc3nncn3C)COC2)c1` [Compound 239] the IC50 was < 100 nM.
For `Cc1c[nH]nc1C1(c2cccc(-n3cc4c(C(F)(F)F)cc(CN5CCO[C@H](C)C5)cn4c3=O)c2)CC2(CC2)C1` [Compound 241], the IC50 was 301 to 1000 nM.
`C[C@@H]1CN(Cc2cc(C(F)(F)F)c3cn(-c4cccc([C@H](c5nncn5C)C5CCC5)c4)c(=O)n3c2)CCO1` [Compound 244] was tested, and the IC50 was < 100 nM.
With `Cn1cnnc1[C@@H](c1cccc(-n2cc3c(C(F)(F)F)cc(CN4CCC(C)(C)C4)cn3c2=O)c1)C1CCC1` [Compound 245] the IC50 was < 100 nM.
`CC(C)CN(C)Cc1cc(C(F)(F)F)c2cn(-c3cccc([C@H](c4nncn4C)C4CCC4)c3)c(=O)n2c1` [Compound 246] was tested, and the IC50 was < 100 nM.
In the case of `C[C@H]1CCN(Cc2cc(C(F)(F)F)c3cn(-c4cccc([C@H](c5nncn5C)C5CCC5)c4)c(=O)n3c2)C1` [Compound 247], the IC50 is reported as < 100 nM.
With `C[C@@H]1CCN(Cc2cc(C(F)(F)F)c3cn(-c4cccc([C@H](c5nncn5C)C5CCC5)c4)c(=O)n3c2)C1` [Compound 248] the IC50 was < 100 nM.
For `CO[C@@H]1CCN(Cc2cc(C(F)(F)F)c3cn(-c4cccc([C@H](c5nncn5C)C5CCC5)c4)c(=O)n3c2)C1` [Compound 249], the IC50 was < 100 nM.
`CO[C@H]1CCCN(Cc2cc(C(F)(F)F)c3cn(-c4cccc([C@H](c5nncn5C)C5CCC5)c4)c(=O)n3c2)C1` [Compound 250] was tested, and the IC50 was < 100 nM.
With `CO[C@@H]1CCCN(Cc2cc(C(F)(F)F)c3cn(-c4cccc([C@H](c5nncn5C)C5CCC5)c4)c(=O)n3c2)C1` [Compound 251] the IC50 was < 100 nM.
`COC1(CNCc2cc(C(F)(F)F)c3cn(-c4cccc(C5(Cc6nncn6C)COC5)c4)c(=O)n3c2)CC1` [Compound 252] was tested, and the IC50 was < 100 nM.
For `Cn1cnnc1CC1(c2cccc(-n3cc4c(C(F)(F)F)cc(CNCC5CCCO5)cn4c3=O)c2)COC1` (stereo not drawn) [Compound 253], the IC50 was < 100 nM.
For `Cn1cnnc1CC1(c2cc(C#N)cc(-n3cc4c(C(F)(F)F)cc(Br)cn4c3=O)c2)COC1` [Compound 254], the IC50 was 1000 to 3000 nM.
With `C[C@H]1CCCN(Cc2cc(C(F)(F)F)c3cn(-c4cccc([C@]5(c6nncn6C)C[C@@H](O)C5)c4)c(=O)n3c2)C1` [Compound 255] the IC50 was < 100 nM.
With `Cn1cnnc1[C@@H](c1cccc(-n2cc3c(C(F)(F)F)cc(CN4CCC(=O)N4)cn3c2=O)c1)C1CCC1` [Compound 258] the IC50 was < 100 nM.
`CO[C@H]1CCN(Cc2cc(C(F)(F)F)c3cn(-c4cccc([C@H](c5nncn5C)C5CCC5)c4)c(=O)n3c2)C1` [Compound 259] was tested, and the IC50 was < 100 nM.
`C[C@H]1CCCN(Cc2cc(C(F)(F)F)c3cn(-c4cccc(N(c5nncn5C)C5CCC5)c4)c(=O)n3c2)C1` [Compound 260] was tested, and the IC50 was < 100 nM.
With `Cn1cnnc1[C@@H](c1cccc(-n2cc3c(C(F)(F)F)cc(CN4CCc5ncsc5C4)cn3c2=O)c1)C1CCC1` [Compound 265] the IC50 was < 100 nM.
With `CO[C@H](C)CNCc1cc(C(F)(F)F)c2cn(-c3cccc(C4(Cc5nncn5C)COC4)c3)c(=O)n2c1` [Compound 266] the IC50 was < 100 nM.
For `Cc1c[nH]nc1[C@H](c1cccc(-n2cc3c(C(F)(F)F)cc(CN4CCO[C@H](C)C4)cn3c2=O)c1)C1COC1` [Compound 267], the IC50 was > 10000 nM.
For `Cc1c[nH]nc1[C@@H](c1cccc(-n2cc3c(C(F)(F)F)cc(CN4CCO[C@H](C)C4)cn3c2=O)c1)C1COC1` [Compound 268], the IC50 was > 10000 nM.
`C[C@H]1CCCN(Cc2cc(C(F)(F)F)c3cn(-c4cccc([C@@H](c5nnc[nH]5)C5CCC5)c4)c(=O)n3c2)C1` [Compound 269] was tested, and the IC50 was < 100 nM.
In the case of `C[C@H]1CCCN(Cc2cc(C(F)(F)F)c3cn(-c4cccc([C@H](c5ncn[nH]5)C5CCC5)c4)c(=O)n3c2)C1` [Compound 270], the IC50 is reported as > 10000 nM.
With `CN(Cc1cc(C(F)(F)F)c2cn(-c3cccc([C@H](c4nncn4C)C4CCC4)c3)c(=O)n2c1)Cc1cncs1` [Compound 275] the IC50 was < 100 nM.
